# Source: patent US20250144067A1, “PERSONALIZED STARVATION THERAPY FOR CANCER” (Faeth Therapeutics, Inc., priority 2021, published 2025)
# Structures can show the parent of a compound that is named as a salt. Where two headings read alike, the source gives them in different places.
# Experiments:
# [1] = system: NCI-H292 lung cancer cells; assay: FDA drug screening, complete media vs cholesterol-free media without statin (TABLE 1); assay type: cell-based, human
# [2] = system: NCI-H292 lung cancer cells; assay: FDA drug screening, complete media vs cholesterol-free media with simvastatin (TABLE 2); assay type: cell-based, human
# [3] = NCI-H292 cells, cholesterol-free media without statin
# [4] = complete vs cholesterol-free media, greater than 0 enhanced anti-cancer activity, about 0 neutral, below 0 antagonists
# [5] = NCI-H292 cells, FDA drug library screen, cholesterol-free media with simvastatin 0.04 μM
# [6] = NCI-H292 cells, FDA drug library screen, complete media
# [7] = complete media vs cholesterol-free media + simvastatin (0.04 μM), >0 enhanced anti-cancer activity, about 0 neutral, <0 antagonist
# [8] = Complete minus Cholesterol-free, >0 enhanced anti-cancer activity, about 0 neutral, <0 antagonist
# [9] = NCI-H292 cells, cholesterol-free media with simvastatin 0.04 μM, FDA drug library screen (TABLE 2)
# [10] = NCI-H292 cells, complete media, FDA drug library screen (TABLE 2)
# [11] = complete media minus cholesterol-free media + simvastatin (0.04 μM), >0 enhanced anti-cancer activity, about 0 neutral, <0 antagonist
# [12] = complete vs cholesterol-free media, […]
# [13] = complete media minus cholesterol-free media + simvastatin (0.04 μM), […]
# [14] = Complete minus Cholesterol-free, […]
# [15] = NCI-H292 cells, drug in cholesterol-free media with simvastatin 0.04 μM
# [16] = NCI-H292 cells, drug in complete media
# [17] = complete media vs cholesterol-free media + simvastatin (0.04 μM), […]
# [18] = NCI-H292 cells, FDA library drug in cholesterol-free media with simvastatin 0.04 μM
# [19] = NCI-H292 cells, FDA library drug in complete media
# [20] = Complete minus Cholesterol-free, greater than 0 enhanced anti-cancer activity, about 0 neutral, below 0 antagonist
# [21] = NCI-H292 cells, FDA drug library screen, cholesterol-free media without statin
# [22] = complete media minus cholesterol-free media + simvastatin, >0 enhanced anti-cancer activity, about 0 neutral, <0 antagonist
# [23] = Complete minus Cholesterol-free, greater than 0 enhanced anti-cancer activity, about 0 neutral, below 0 antagonists
# [24] = NCI-H292 cells in cholesterol-free media without statin
# [25] = NCI-H292 cells in complete media
# [26] = NCI-H292 cells, cholesterol-free media with simvastatin 0.04 μM, cell growth value in FDA drug screen
# [27] = NCI-H292 cells, complete media, cell growth value in FDA drug screen
# [28] = NCI-H292 cells, cholesterol-free media without statin, FDA drug library screen
# [29] = NCI-H292 cells, complete media, FDA drug library screen
molecule,measurement,setting,value
Cc1ccc(C)c(OCCCC(C)(C)C(=O)O)c1 [Gemfibrozil],Cholesterol-free,[1]; [3],1.369
same,Complete,"[1]; NCI-H292 cells, complete media",0.9198
same,Difference,[1]; [4],−0.45
same,Cholesterol-free media + simvastatin (0.04 μM),[2]; [5],1.808
same,Complete Media,[2]; [6],1.701
same,Difference,[2]; [7],−0.11
CCN1CCCC1CNC(=O)c1cc(S(N)(=O)=O)ccc1OC (stereo not drawn) [Sulpiride],Difference,[1]; [8],−0.22
same,Cholesterol-free,[1]; [3],1.254
same,Complete,"[1]; NCI-H292 cells, complete media",1.03
same,Cholesterol-free media + simvastatin (0.04 μM),[2]; [9],1.077
same,Complete Media,[2]; [10],1.053
same,Difference,[2]; [11],−0.02
Catechin,Complete,"[1]; NCI-H292 cells, complete media",0.7264
same,Difference,[1]; [12],−0.38
same,Cholesterol-free media + simvastatin (0.04 μM),[2]; [9],1.661
same,Difference,[2]; [13],−0.02
[NH2][Pt]1([NH2])[O]CC(=O)[O]1 [Nedaplatin],Difference,[1]; [14],−0.25
same,Cholesterol-free,[1]; [3],1.253
same,Complete,"[1]; NCI-H292 cells, complete media",1.005
same,Cholesterol-free media + simvastatin (0.04 μM),[2]; [15],1.191
same,Complete Media,[2]; [16],0.986
same,Difference,[2]; [17],−0.20
O.O.O.O.O.O.O.O=C1N=C([O-])CN1/N=C/c1ccc(-c2ccc([N+](=O)[O-])cc2)o1.O=C1N=C([O-])CN1/N=C/c1ccc(-c2ccc([N+](=O)[O-])cc2)o1.[Na+].[Na+] [Dantrolene (sodium hemiheptahydrate)],Cholesterol-free,[1]; [3],1.274
same,Complete,"[1]; NCI-H292 cells, complete media",0.9468
same,Difference,[1]; [4],−0.33
same,Cholesterol-free media + simvastatin (0.04 μM),[2]; [18],1.565
same,Complete Media,[2]; [19],1.218
same,Difference,[2]; [7],−0.35
CCn1cc(C(=O)O)c(=O)c2cc(F)c(N3CCNC(C)C3)c(F)c21 (stereo not drawn) [Lomefloxacin (hydrochloride)],Cholesterol-free,[1]; [3],1.531
same,Difference,[1]; [4],−0.37
same,Cholesterol-free media + simvastatin (0.04 μM),[2]; [18],1.657
same,Complete Media,[2]; [19],0.934
same,Difference,[2]; [7],−0.72
CN(C)CCC=C1c2ccccc2C(C)(C)c2ccccc21 [Melitracen (hydrochloride)],Difference,[1]; [20],−0.10
same,Cholesterol-free,[1]; [21],1.283
same,Complete,[1]; [6],1.187
same,Cholesterol-free media + simvastatin (0.04 μM),[2]; [5],1.24
same,Complete Media,[2]; [6],1.495
same,Difference,[2]; [22],0.26
N[C@@H](Cc1c[nH]cn1)C(=O)O [L-Histidine],Difference,[1]; [23],−0.88
same,Cholesterol-free,[1]; [24],2.131
same,Complete,[1]; [25],1.254
same,Cholesterol-free media + simvastatin (0.04 μM),[2]; [26],1.86
same,Complete Media,[2]; [27],1.878
same,Difference,[2]; [22],0.02
CC(C)NCC(O)c1ccc(NS(C)(=O)=O)cc1 (stereo not drawn) [Sotalol (hydrochloride)],Cholesterol-free,[1]; [3],1.39
same,Complete,"[1]; NCI-H292 cells, complete media",0.9629
same,Difference,[1]; [4],−0.43
same,Cholesterol-free media + simvastatin (0.04 μM),[2]; [5],0.8339
same,Complete Media,[2]; [6],0.7583
same,Difference,[2]; [7],−0.08
OB1OCc2cc(F)ccc21 [Tavaborole],Difference,[1]; [8],−0.04
same,Cholesterol-free,[1]; [28],1.018
same,Complete,[1]; [29],0.9789
same,Cholesterol-free media + simvastatin (0.04 μM),[2]; [9],1.181
same,Complete Media,[2]; [10],1.117
same,Difference,[2]; [11],−0.06
CN1CCN(c2cc3c(nn2)Oc2ccccc2N3C)CC1.Cl.Cl.O [Azaphen (dihydrochloride monohydrate)],Cholesterol-free,[1]; [3],1.204
same,Complete,"[1]; NCI-H292 cells, complete media",0.7783
same,Difference,[1]; [12],−0.43
same,Cholesterol-free media + simvastatin (0.04 μM),[2]; [5],1.02
same,Complete Media,[2]; [6],0.9251
same,Difference,[2]; [17],−0.09
CC(C)(C)CC(=O)OCC(=O)[C@@]12OC(C)(C)O[C@@H]1C[C@H]1[C@@H]3CCC4=CC(=O)C=C[C@]4(C)[C@@]3(F)[C@@H](O)C[C@@]12C [Triamcinolone hexacetonide],Difference,[1]; [8],−0.20
same,Cholesterol-free,[1]; [3],0.7329
same,Complete,"[1]; NCI-H292 cells, complete media",0.5285
same,Cholesterol-free media + simvastatin (0.04 μM),[2]; [18],1.053
same,Complete Media,[2]; [19],0.6525
same,Difference,[2]; [7],−0.40
Cisatracurium (besylate),Difference,[1]; [20],−0.15
same,Cholesterol-free,[1]; [21],1.321
same,Complete,[1]; [6],1.173
same,Cholesterol-free media + simvastatin (0.04 μM),[2]; [5],1.09
same,Complete Media,[2]; [6],1.349
same,Difference,[2]; [22],0.26
"COc1ccc2cc1Oc1ccc(cc1)C[C@H]1c3c(cc4c(c3Oc3cc5c(cc3OC)CCN(C)[C@@H]5C2)OCO4)CCN1C [cepharanthine, reference compound]",Difference,[1]; [8],0.04
same,Cholesterol-free,[1]; [28],1.12
same,Complete,[1]; [29],1.159
same,Cholesterol-free media + simvastatin (0.04 μM),[2]; [5],0.1249
same,Complete Media,[2]; [6],1.4
same,Difference,[2]; [22],1.27
COC(=O)/C=C/C(=O)OC [Dimethyl fumarate],Difference,[1]; [20],−0.13
same,Cholesterol-free,[1]; [21],0.8617
same,Complete,[1]; [6],0.7326
same,Cholesterol-free media + simvastatin (0.04 μM),[2]; [5],0.991
same,Complete Media,[2]; [6],0.9095
same,Difference,[2]; [7],−0.08
O=C([O-])CCCc1ccccc1.[Na+] [Sodium 4-phenylbutyrate],Cholesterol-free,[1]; [28],0.7629
same,Complete,[1]; [29],1.099
same,Difference,"[1]; complete vs cholesterol-free media, >0 enhanced anti-cancer activity, about 0 neutral, <0 antagonist",0.34
same,Cholesterol-free media + simvastatin (0.04 μM),[2]; [15],1.094
same,Complete Media,[2]; [16],0.9051
same,Difference,[2]; [7],−0.19
CC1=C(/C=C/C(C)=C/C=C/C(C)=C/C=C/C=C(C)/C=C/C=C(C)/C=C/C2=C(C)CCCC2(C)C)C(C)(C)CCC1 [β-Carotene],Difference,[1]; [23],−0.67
same,Cholesterol-free,[1]; [24],1.322
same,Complete,[1]; [25],0.6506
same,Cholesterol-free media + simvastatin (0.04 μM),[2]; [18],0.923
same,Complete Media,[2]; [19],0.6081
same,Difference,[2]; [7],−0.31
CC(=O)/N=c1/sc(S(N)(=O)=O)nn1C [Methazolamide],Difference,[1]; [23],−0.57
same,Cholesterol-free,[1]; [24],1.478
same,Complete,[1]; [25],0.9069
same,Cholesterol-free media + simvastatin (0.04 μM),[2]; [15],1.441
same,Complete Media,[2]; [16],1.241
same,Difference,[2]; [7],−0.20
CC(=O)OCC1=C(C(=O)O)N2C(=O)[C@@H](NC(=O)CSc3ccncc3)[C@H]2SC1 [Cephapirin (sodium)],Cholesterol-free,[1],0.9897
same,Complete,[1],1.131
same,Difference,[1],0.14
same,Cholesterol-free media + simvastatin (0.04 μM),[2],2.472
same,Complete Media,[2],1.209
same,Difference,[2],−1.26
O=C(Nc1cnn2ccc(N3CCC[C@@H]3c3cc(F)ccc3F)nc12)N1CC[C@H](O)C1 [Larotrectinib],Difference,[1]; [20],−0.08
same,Cholesterol-free,[1]; [21],1.012
same,Complete,[1]; [6],0.9305
same,Cholesterol-free media + simvastatin (0.04 μM),[2]; [26],1.092
same,Complete Media,[2]; [27],1.143
same,Difference,[2]; [22],0.05
Cc1cc(=O)n(-c2ccccc2)n1C [Antipyrine],Difference,[1]; [14],−0.24
same,Cholesterol-free,[1]; [3],1.066
same,Complete,"[1]; NCI-H292 cells, complete media",0.8256
same,Cholesterol-free media + simvastatin (0.04 μM),[2]; [5],0.9785
same,Complete Media,[2]; [6],0.8535
same,Difference,[2]; [17],−0.13
CC(C)OC(=O)[C@H](C)N[P@](=O)(OC[C@H]1O[C@@H](n2ccc(=O)[nH]c2=O)[C@](C)(F)[C@@H]1O)Oc1ccccc1 [Sofosbuvir],Cholesterol-free,[1]; [3],1.138
same,Complete,"[1]; NCI-H292 cells, complete media",0.6875
same,Difference,[1]; [12],−0.45
same,Cholesterol-free media + simvastatin (0.04 μM),[2]; [9],0.9955
same,Complete Media,[2]; [10],0.9628
same,Difference,[2]; [13],−0.03
CC1=C(C(=O)OCCN(Cc2ccccc2)c2ccccc2)C(c2cccc([N+](=O)[O-])c2)C(P2(=O)OCC(C)(C)CO2)=C(C)N1.CCO.Cl (stereo not drawn),Difference,[1]; [20],−0.15
same,Cholesterol-free,[1]; [21],0.9837
same,Complete,[1]; [6],0.8325
same,Cholesterol-free media + simvastatin (0.04 μM),[2]; [5],1.113
same,Complete Media,[2]; [6],1.012
same,Difference,[2]; [7],−0.10
